Test results: PubChem BioAssay (NCI)
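Dose response: 5 concentrations. Exposure: 48 h. Format: 96-well plates. Endpoint: linear interpolation; highest concentration if not reached. TGI denotes the concentration required for complete inhibition of growth.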

Tests used:
Experiment in all cases: growth of human tumour cells (NCI), 48 h
DU-145 prostate = system: DU-145 prostate
EKVX NSCLC = system: EKVX NSCLC
HCC-2998 colon = system: HCC-2998 colon
HCT-116 colon = system: HCT-116 colon
HL-60(TB) leukemia = system: HL-60(TB) leukemia
HT29 colon = system: HT29 colon
IGROV1 ovarian = system: IGROV1 ovarian
LOX IMVI melanoma = system: LOX IMVI melanoma
M14 melanoma = system: M14 melanoma
MALME-3M melanoma = system: MALME-3M melanoma
MDA-MB-231 breast = system: MDA-MB-231 breast
MDA-N = system: MDA-N
NCI/ADR-RES ovarian = system: NCI/ADR-RES ovarian
OVCAR-4 ovarian = system: OVCAR-4 ovarian
OVCAR-8 ovarian = system: OVCAR-8 ovarian
RPMI-8226 leukemia = system: RPMI-8226 leukemia
SK-MEL-2 melanoma = system: SK-MEL-2 melanoma
SR leukemia = system: SR leukemia
UACC-257 melanoma = system: UACC-257 melanoma
UO-31 renal = system: UO-31 renal

| Structure (SMILES) | TGI (DU-145 prostate) | TGI (EKVX NSCLC) | TGI (HCC-2998 colon) | TGI (HCT-116 colon) | TGI (HL-60(TB) leukemia) | TGI (HT29 colon) | TGI (IGROV1 ovarian) | TGI (LOX IMVI melanoma) | TGI (M14 melanoma) | TGI (MALME-3M melanoma) | TGI (MDA-MB-231 breast) | TGI (MDA-N) | TGI (NCI/ADR-RES ovarian) | TGI (OVCAR-4 ovarian) | TGI (OVCAR-8 ovarian) | TGI (RPMI-8226 leukemia) | TGI (SK-MEL-2 melanoma) | TGI (SR leukemia) | TGI (UACC-257 melanoma) | TGI (UO-31 renal) |
| --- | --- | --- | --- | --- | --- | --- | --- | --- | --- | --- | --- | --- | --- | --- | --- | --- | --- | --- | --- | --- |
| CC(=O)N1C(CCc2ccccc2)CC(C)(C=O)C1Cc1ccc(O[Si](C(C)C)(C(C)C)C(C)C)cc1 (stereo not given) | 18.9 µM | 15.8 µM | 4.62 µM | 9.03 µM | 4.42 µM | 9.99 µM | 19.1 µM | 3.85 µM | 4.49 µM | 27.3 µM | 11.1 µM | 6.4 µM | 31.1 µM | 16.8 µM | 18.6 µM | 5.03 µM | 8.02 µM | > 21.7 µM | 10.6 µM | 14.3 µM |
| CC1CC(=NC2CCCCC2)Nc2ccccc2N1Cc1ccccc1 (stereo not given) | 17 µM | 21 µM | 11.5 µM | > 35.6 µM | 20.2 µM | 12.5 µM | 8.61 µM | 6.85 µM | 4.46 µM | 8.8 µM | 17 µM | 12.5 µM | 19.9 µM | 20.2 µM | 19.8 µM | > 32.7 µM | 24.9 µM | > 100 µM | 13.2 µM | 13.3 µM |
| O=CC(O)C(O)C1OC(=O)c2cc(O)c(O)c(O)c2C2=C(O)C(O)=C3OC(=O)c4c(c(O)c(O)c5c4C3C2C(=O)O5)-c2c(cc(O)c(O)c2O)C(=O)OCC1O (stereo not given) | > 100 µM | > 100 µM | > 100 µM | 29 µM | 67.7 µM | 42.9 µM | > 100 µM | 31.9 µM | > 100 µM | > 100 µM | 58.1 µM | 41.1 µM | > 100 µM | 51.5 µM | 45.9 µM | > 100 µM | > 100 µM | 63 µM | > 100 µM | > 100 µM |
| C[C@H](CCC(=O)NCCS(=O)(=O)O)[C@H]1CC[C@H]2[C@@H]3[C@H](O)C[C@@H]4C[C@H](O)CC[C@]4(C)[C@H]3CC[C@]12C | > 100 µM | > 100 µM | > 100 µM | > 100 µM | > 100 µM | > 100 µM | > 100 µM | > 100 µM | > 100 µM | > 100 µM | > 100 µM | > 100 µM | > 100 µM | > 100 µM | > 100 µM | > 100 µM | > 100 µM | > 100 µM | > 100 µM | > 100 µM |
